This is an account of results in ChEMBL document CHEMBL1145423, “Synthesis and pharmacological evaluation of phenylethynyl[1,2,4]methyltriazines as analogues of 3-methyl-6-(phenylethynyl)pyridine” (J Med Chem, 2007).

Calls of active or inactive are those of the source. No cut-off for these calls is given here.

The target in assay [1] is Metabotropic glutamate receptor 1 (Homo sapiens) (UniProt Q13255). Kind of assay: Antagonist activity at human mGluR1 receptor expressed in CHOK1 cells assessed as inhibition of glutamate-mediated internal calcium mobilization. Format: functional, cell-based. The following applies: CHO-K1.
For assay [2], the target named is Metabotropic glutamate receptor 5 (Homo sapiens, UniProt P41594). Kind of assay: Antagonist activity at human mGluR5 receptor expressed in CHOK1 cells assessed as inhibition of glutamate-mediated internal calcium mobilization. It counts as functional, cell-based, CHO-K1.
Chain of Metabotropic glutamate receptor 5 (P41594 whole entry): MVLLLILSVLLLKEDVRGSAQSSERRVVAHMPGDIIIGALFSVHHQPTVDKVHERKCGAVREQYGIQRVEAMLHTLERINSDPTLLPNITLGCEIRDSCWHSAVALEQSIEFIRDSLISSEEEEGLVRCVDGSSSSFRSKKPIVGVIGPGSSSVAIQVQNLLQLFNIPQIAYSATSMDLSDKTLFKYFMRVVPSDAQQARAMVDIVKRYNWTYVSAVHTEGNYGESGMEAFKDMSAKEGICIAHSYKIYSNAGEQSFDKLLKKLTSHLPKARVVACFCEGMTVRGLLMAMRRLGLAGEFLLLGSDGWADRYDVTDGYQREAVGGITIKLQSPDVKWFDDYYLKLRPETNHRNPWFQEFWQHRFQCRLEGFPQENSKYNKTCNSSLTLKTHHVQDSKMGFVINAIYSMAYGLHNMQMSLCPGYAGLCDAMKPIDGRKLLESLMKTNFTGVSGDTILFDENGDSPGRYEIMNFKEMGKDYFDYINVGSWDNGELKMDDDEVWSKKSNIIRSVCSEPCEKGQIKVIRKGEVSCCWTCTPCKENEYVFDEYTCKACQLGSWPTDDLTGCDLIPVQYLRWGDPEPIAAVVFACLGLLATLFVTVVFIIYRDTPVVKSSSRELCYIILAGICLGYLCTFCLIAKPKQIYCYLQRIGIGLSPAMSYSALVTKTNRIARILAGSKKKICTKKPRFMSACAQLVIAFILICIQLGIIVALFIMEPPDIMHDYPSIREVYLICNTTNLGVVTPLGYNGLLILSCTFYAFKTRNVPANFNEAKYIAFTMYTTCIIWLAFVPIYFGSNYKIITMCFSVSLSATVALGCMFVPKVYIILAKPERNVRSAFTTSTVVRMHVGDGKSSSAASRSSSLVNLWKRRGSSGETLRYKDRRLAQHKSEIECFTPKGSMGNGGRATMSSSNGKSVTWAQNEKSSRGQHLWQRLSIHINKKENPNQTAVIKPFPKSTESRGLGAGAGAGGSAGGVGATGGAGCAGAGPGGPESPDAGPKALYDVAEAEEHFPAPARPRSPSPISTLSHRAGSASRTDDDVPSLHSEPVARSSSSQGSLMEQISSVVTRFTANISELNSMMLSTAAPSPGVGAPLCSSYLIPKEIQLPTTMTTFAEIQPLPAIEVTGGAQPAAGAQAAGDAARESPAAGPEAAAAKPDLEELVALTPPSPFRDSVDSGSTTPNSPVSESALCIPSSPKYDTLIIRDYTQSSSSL

Chain of Metabotropic glutamate receptor 1 (Homo sapiens) (Q13255 19-1194 limits assumed): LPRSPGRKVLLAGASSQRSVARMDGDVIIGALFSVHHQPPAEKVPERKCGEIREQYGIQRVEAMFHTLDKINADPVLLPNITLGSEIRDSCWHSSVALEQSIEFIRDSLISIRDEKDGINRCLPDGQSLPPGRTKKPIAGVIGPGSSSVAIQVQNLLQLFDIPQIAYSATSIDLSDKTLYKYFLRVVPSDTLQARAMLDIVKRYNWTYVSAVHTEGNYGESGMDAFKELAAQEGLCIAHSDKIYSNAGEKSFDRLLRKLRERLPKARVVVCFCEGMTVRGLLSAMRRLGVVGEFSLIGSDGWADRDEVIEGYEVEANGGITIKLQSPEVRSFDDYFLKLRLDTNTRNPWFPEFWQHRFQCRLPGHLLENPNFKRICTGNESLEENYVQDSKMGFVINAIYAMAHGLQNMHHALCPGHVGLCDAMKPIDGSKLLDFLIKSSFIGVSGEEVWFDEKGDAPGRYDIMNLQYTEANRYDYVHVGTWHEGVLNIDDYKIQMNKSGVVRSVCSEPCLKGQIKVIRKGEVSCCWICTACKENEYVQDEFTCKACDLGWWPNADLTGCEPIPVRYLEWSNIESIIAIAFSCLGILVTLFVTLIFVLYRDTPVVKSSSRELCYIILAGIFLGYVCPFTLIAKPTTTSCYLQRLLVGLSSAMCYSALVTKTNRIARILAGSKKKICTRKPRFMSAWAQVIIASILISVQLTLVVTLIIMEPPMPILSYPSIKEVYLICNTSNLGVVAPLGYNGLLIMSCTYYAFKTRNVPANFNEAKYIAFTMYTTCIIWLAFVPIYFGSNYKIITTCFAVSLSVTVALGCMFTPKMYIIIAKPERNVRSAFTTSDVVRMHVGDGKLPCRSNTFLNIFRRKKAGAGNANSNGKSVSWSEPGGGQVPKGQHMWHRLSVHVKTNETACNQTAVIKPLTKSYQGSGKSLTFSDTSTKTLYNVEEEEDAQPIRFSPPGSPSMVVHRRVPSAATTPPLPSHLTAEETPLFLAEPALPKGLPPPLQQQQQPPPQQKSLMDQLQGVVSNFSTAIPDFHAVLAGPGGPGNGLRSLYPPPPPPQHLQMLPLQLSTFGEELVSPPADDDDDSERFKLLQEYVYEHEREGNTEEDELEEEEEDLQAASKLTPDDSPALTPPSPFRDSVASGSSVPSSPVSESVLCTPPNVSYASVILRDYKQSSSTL

For the compound `Cc1ccc(C)c(C#Cc2nncc(C)n2)c1`, the outcome in assay [1] was inactive. The IC50 in assay [2] (read-out: IC50) turned out to be 1890 nM.
In the same order, the values of `Cc1cnnc(C#Cc2cccc(C(F)(F)F)c2)n1` are “inactive” and 85 nM.
In the case of `Cc1cnnc(C#Cc2cc(C(F)(F)F)cc(C(F)(F)F)c2)n1`, the IC50 result in assay [2] (cho-k1) is “Not Active”.
On the same count and under the same terms, next, `Cc1cnc(C#Cc2ccccc2)nn1`: “Not Active”; `Cc1cnnc(C#Cc2ccccc2C)n1`: “Not Active”; `Cc1cnnc(C#Cc2ccc(C(F)(F)F)cc2)n1`: “Not Active”.
Take `Cc1cnnc(C#Cc2ccc(-c3ccccc3)cc2)n1`: the result in assay [1] was inactive. The IC50 in assay [2] (read-out: IC50) amounted to 510 nM.
For the compound `Cc1cccc(C#Cc2nncc(C)n2)c1`, the result in assay [1] was inactive. Moreover, in assay [2] (read-out: IC50), the IC50 stood at 2.3 nM.
On to `Cc1nncc(C#Cc2ccccc2)n1`, for which the IC50 result in assay [2] (cho-k1) was “Not Active”.
With `Cc1cnnc(C#Cc2ccc3ccccc3c2)n1`, the IC50 entry in assay [2] (cho-k1) is recorded as “Not Active”.
As for `Cc1cnnc(C#Cc2ccc(F)c(C)c2)n1`, in assay [1], the outcome was inactive. The IC50 in assay [2] (read-out: IC50) is 132 nM.
Taken in the same sequence, the figures for `COc1cccc(C#Cc2nncc(C)n2)c1` were “inactive” and 312 nM.
Regarding `COc1ccc(C#Cc2nncc(C)n2)c(C)c1`, the IC50 entry in assay [2] (cho-k1) was “Not Active”.
`Cc1cnnc(C#Cc2cccc(F)c2)n1`: the outcome in assay [1] was inactive. The IC50 in assay [2] (read-out: IC50) is 96 nM.
Taken in the same sequence, the figures for `Cc1cnnc(C#Cc2cccc(C#N)c2)n1` were “inactive” and 52 nM.
Taken in the same sequence, the figures for `Cc1cnnc(C#Cc2cccc(Br)c2)n1` were “inactive” and 6 nM.
For `Cc1cnnc(C#Cc2ccc(F)cc2F)n1`, the IC50 result in assay [2] (cho-k1) is recorded as “Not Active”.
For `COc1ccccc1C#Cc1nncc(C)n1`, the IC50 result in assay [2] (cho-k1) is “Not Active”.
As to `Cc1cnnc(C#Cc2cccc(Cl)c2)n1`, the outcome in assay [1] was inactive. In addition, the IC50 in assay [2] (read-out: IC50) is 4.2 nM.
In the same order, the values of `Cc1cnnc(C#Cc2ccccc2)n1` are “inactive” and 140 nM.
With `Cc1cnnc(C#Cc2ccc3c(c2)OCO3)n1`, the IC50 result in assay [2] (cho-k1) is “Not Active”.
For the compound `Cc1cnnc(C#Cc2ccc(Oc3ccccc3)cc2)n1`, the result in assay [1] was inactive. Moreover, in assay [2] (read-out: IC50), the IC50 is 80 nM.
For `Cc1cnnc(C#Cc2cccc3ccccc23)n1`, in assay [1], the result was inactive. Also, the IC50 in assay [2] (read-out: IC50) was determined as 8900 nM.
